Laboratory results as given in US12297295B2, “Peptide for treating cancer” (Saint Leo University, priority 2019, dated 2025).
Where no end group is shown, it is not given here.

Tests used:
[1] = system: PANC-1 pancreatic cancer cells
Procedure: The effect of Peptides 7M and 7MM on PANC-1 pancreatic cancer cells (ATCC #CRL-1469) was studied. Pierce Protein Transfection reagent (Thermo Scientific, 89850) was used to deliver peptide to the cultured cells. PANC-1 pancreatic cancer cells were transfected with 0.625-10 μM Peptide 7M or Peptide 7MM for 3.5 hrs, incubated in a complete media for a duration of two doubling times (48 hours), and assessed for viability by using a CCK-8 colorimetric assay.
The effect of peptide 7α of viability of pancreatic cancer cells was studied. PANC-1 pancreatic cancer cells (ATCC #CRL-1469) were transfected with 1.25-10 μM peptide 7α for 3.5 hrs, incubated in a complete media for a duration of two doubling times, and assessed for viability by using a CCK-8 colorimetric assay (Dojindo Molecular Technologies, Inc.).
(§1) IC50 values were calculated from obtained equations that describe cell viability as a function of peptide concentration.

[2] = system: HLF normal primary lung fibroblasts
Procedure: The effect of peptide 7α of viability of HLF normal primary lung fibroblasts was studied. HLF normal primary lung fibroblasts (ATCC #PCS-201-013) were transfected with 1.25-10 μM peptide 7α for 3.5 hrs, incubated in a complete media for a duration of two doubling times, and assessed for viability by using a CCK-8 colorimetric assay (Dojindo Molecular Technologies, Inc.).
The effect of peptide 7MM of viability of normal lung cells was studied. HLF normal primary lung fibroblasts (ATCC #PC S-201-013) were transfected with 1.25-10 μM peptide 7MM for 3.5 hrs, incubated in a complete media for a duration of two doubling times, and assessed for viability by using a CCK-8 colorimetric assay (Dojindo Molecular Technologies, Inc.).
as §1

[3] = system: HMEC primary mammary epithelial normal cells
Procedure: HMEC mammary epithelial cells (ATCC #PCS-600-010) were transfected with 1.25-20 μM peptide 7α for 3.5 hrs, incubated in a complete media for a duration of two doubling times, and assessed for viability by using a CCK-8 colorimetric assay (Dojindo Molecular Technologies, Inc.).
HMEC primary normal epithelial breast cells (ATCC #PCS-600-010) were transfected with 1.25-10 μM peptide 7MM for 3.5 hrs, incubated in a complete media for a duration of two doubling times, and assessed for viability by using a CCK-8 colorimetric assay (Dojindo Molecular Technologies, Inc.).
as §1

CMG helicase = target: T1, CMG helicase (Xenopus laevis, UniProt Q91876); test: S phase arrested Xenopus egg extracts, chromatin RPA Western blot as readout for DNA helicase activity; type: biochemical; conditions: 250 μM peptide, 90 min incubation
T1 construct: from tissue; host or cells: S phase arrested Xenopus egg extracts (endogenous proteins on chromatin)
Procedure: The peptide of SEQ ID NO: 1 was synthesized using solid-phase synthesis. The product was purified using HPLC to a purity of about 99%. 250 μM of peptide Ex7 ([…]) (SEQ ID NO: 8), peptide 7N (circularized—KGEVLQMEDDLV) (SEQ ID NO: 9), peptide 7M (ISFQLMLCVLDYF) (SEQ ID NO: 1), or peptide 7C (IKLSPPMLLKEPYK) (SEQ ID NO: 10) were incubated in S phase arrested Xenopus egg extracts. Following a 90 min incubation, chromatin was isolated and probed by Western blotting for RPA protein as a readout for DNA helicase activity. Additionally, peptide 7MN (ISFQLML) (SEQ ID NO: 5), peptide 7MM (QLMLCVL) (SEQ ID NO: 2), and peptide 7MC (LCVLDYF) (SEQ ID NO: 6) were tested.
250 μM of each of peptides 7α (DLVISFQLMLCVLDYFIK) (SEQ ID NO: 14), 7α-ln (LVISFQLMLCVLDYFIK) (SEQ ID NO: 22), 7α-2n (VISFQLMLCVLDYFIK) (SEQ ID NO: 23), 7α-3n (ISFQLMLCVLDYFIK) (SEQ ID NO: 24), 7α-4n (SFQLMLCVLDYFIK) (SEQ ID NO: 25), 7α-5n (FQLMLCVLDYFIK) (SEQ ID NO: 26), 7α-6n (QLMLCVLDYFIK) (SEQ ID NO: 27), 7α-7n (LMLCVLDYFIK) (SEQ ID NO: 28), 7α-17c (DLVISFQLMLCVLDYF) (SEQ ID NO: 29), 7α-16c (DLVISFQLMLCVLDY) (SEQ ID NO: 30), 7α-15c (DVISFQLMLCVLD) (SEQ ID NO: 31), 7α-14c (DVISFQLMLCVL) (SEQ ID NO: 32), 7α-11c (DVISFQLML) (SEQ ID NO: 33) was incubated in S phase arrested Xenopus egg extracts. Following a 90 min incubation, chromatin was isolated and probed by Western blotting for RPA protein as a readout for DNA helicase activity.

[4] = system: DU145 prostate cancer cells
Procedure: DU145 prostate cancer cells (ATCC #HTB-81) were transfected with 1.25-10 μM peptide 7α for 3.5 hrs, incubated in a complete media for a duration of two doubling times, and assessed for viability by using a CCK-8 colorimetric assay (Dojindo Molecular Technologies, Inc.).
DU145 prostate cancer cells (ATCC #HTB-81) were transfected with 1.25-10 μM peptide 7MM for 3.5 hrs, incubated in a complete media for a duration of two doubling times, and assessed for viability by using a CCK-8 colorimetric assay (Dojindo Molecular Technologies, Inc.).
as §1

[5] = system: HT1080 fibrosarcoma cancer cells
Procedure: as §1

[6] = system: SVG p12 immortalized astroglia cells
Procedure: as §1

[7] = system: THLE-3 immortalized normal liver cells
Procedure: as §1

[8] = system: HCT-116 colorectal cancer cells
Procedure: The effect of peptide 7MM of viability of colorectal cancer cells was studied. HCT-116 colorectal cancer cells (ATCC #CCL-247) were transfected with 1.25-10 μM peptide 7MM for 3.5 hrs, incubated in a complete media for a duration of two doubling times, and assessed for viability by using a CCK-8 colorimetric assay (Dojindo Molecular Technologies, Inc.).
as §1

[9] = system: hTERT-HPNE immortalized normal pancreatic cells
Procedure: as §1

[10] = system: PC3 prostate cancer cells
Procedure: The effect of peptide 7α of viability of prostate cancer cells was studied. PC3 prostate cancer cells (ATCC #CRL-1435) were transfected with 1.25-10 μM peptide 7α for 3.5 hrs, incubated in a complete media for a duration of two doubling times, and assessed for viability by using a CCK-8 colorimetric assay (Dojindo Molecular Technologies, Inc.).
The effect of peptide 7MM of viability of prostate cancer cells was studied. PC3 prostate cancer cells (ATCC #CRL-1435) were transfected with 1.25-10 μM peptide 7MM for 3.5 hrs, incubated in a complete media for a duration of two doubling times, and assessed for viability by using a CCK-8 colorimetric assay (Dojindo Molecular Technologies, Inc.).
as §1

[11] = system: BT-549 breast cancer cells
Procedure: The effect of Peptides 7M and 7MM on BT-549 breast cancer cells (ATCC #HTB-122) was studied. Pierce Protein Transfection reagent (Thermo Scientific, 89850) was used to deliver peptide to the cultured cells. BT-549 breast cancer cells were transfected with 0.625-20 μM Peptide 7M or 1.25-10 μM Peptide 7MM for 3.5 hrs, incubated in a complete media for a duration of two doubling times (96 hours), and assessed for viability by using a CCK-8 colorimetric assay.
as §1

[12] = system: M059J glioma cancer cells
Procedure: (§2) Pierce Protein Transfection reagent (Thermo Scientific, 89850) was used to deliver peptide to the cultured cells.
M059J glioma cancer cells (ATCC #CRL-2366) were transfected with 1.25-10 μM peptide 7α for 3.5 hrs, incubated in a complete media for a duration of two doubling times, and assessed for viability by using a CCK-8 colorimetric assay (Dojindo Molecular Technologies, Inc.).
M059J glioma cancer cells (ATCC #CRL-2366) were transfected with 1.25-10 μM peptide 7MM for 3.5 hrs, incubated in a complete media for a duration of two doubling times, and assessed for viability by using a CCK-8 colorimetric assay (Dojindo Molecular Technologies, Inc.).
as §1

[13] = system: U-2 OS osteosarcoma cancer cells
Procedure: as §1

[14] = system: Hs 766T pancreatic cancer cells
Procedure: as §1

[15] = transfected 1.25-10 μM for 3.5 hrs, two doubling times, CCK-8
[16] = transfected 1.25-20 μM for 3.5 hrs, two doubling times, CCK-8

Procedure for A549 lung cancer cells: as §1
Procedure for H596 lung cancer cells: as §1
Procedure for HepG2 liver cancer cells: as §2, §1

Question: With “DLVISFQLMLCVLDYFIK [7α, DLVISFQLMLCVLDYFIK]” as the sequence, how does the IC50 ([1]; 48 h) read?
Answer: 6.4 µM

Question: And the “effect on viability of PANC-1 pancreatic cancer cells” value [1, 15]?
Answer: decreases viability

Question: What about the IC50 [2] of the same sequence?
Answer: 225 µM

Question: And the “effect on viability of HLF normal primary lung fibroblasts” value [2, 15]?
Answer: does not affect viability

Question: What about the IC50 [3] of the same sequence?
Answer: 115 µM

Question: What about the “effect on viability of HMEC normal mammary epithelial cells” value [3, 16] of the same sequence?
Answer: does not affect viability

Question: What about the “inhibition of CMG helicase in vitro (chromatin RPA Western blot)” value (CMG helicase) of the same sequence?
Answer: inhibit CMG helicase in vitro

Question: What about the IC50 (A549 lung cancer cells) of the same sequence?
Answer: 16.5 µM

Question: And the “effect on viability of A549 lung cancer cells” value (A549 lung cancer cells; [15])?
Answer: decreases viability

Question: What about the IC50 [4] of the same sequence?
Answer: 10.3 µM

Question: And the “effect on viability of DU145 prostate cancer cells” value [4, 15]?
Answer: decreases viability

Question: And the IC50 [5]?
Answer: 4.4 µM

Question: And the “effect on viability of HT1080 fibrosarcoma cancer cells” value [5, 15]?
Answer: decreases viability

Question: And the IC50 (H596 lung cancer cells)?
Answer: 7.5 µM

Question: What about the “effect on viability of H596 lung cancer cells” value (H596 lung cancer cells; [15]) of the same sequence?
Answer: decreases viability

Question: What about the IC50 [6] of the same sequence?
Answer: 113 µM

Question: What about the “effect on viability of SVG p12 normal brain cells” value [6, 16] of the same sequence?
Answer: does not affect viability

Question: What about the IC50 [7] of the same sequence?
Answer: 119 µM

Question: And the “effect on viability of THLE-3 normal liver cells” value [7, 15]?
Answer: does not affect viability

Question: And the IC50 [8]?
Answer: 9.5 µM

Question: And the “effect on viability of HCT-116 colorectal cancer cells” value [8, 15]?
Answer: decreases viability

Question: And the IC50 [9]?
Answer: 366 µM

Question: What about the “effect on viability of hTERT-HPNE normal pancreatic cells” value [9, 15] of the same sequence?
Answer: does not affect viability

Question: What about the IC50 [10] of the same sequence?
Answer: 9.6 µM

Question: And the “effect on viability of PC3 prostate cancer cells” value [10, 15]?
Answer: decreases viability

Question: And the IC50 ([11]; 96 h)?
Answer: 4.6 µM

Question: And the “effect on viability of BT-549 breast cancer cells” value [11, 15]?
Answer: decreases viability

Question: What about the IC50 ([12]; 48 h) of the same sequence?
Answer: 7.1 µM

Question: What about the “effect on viability of M059J glioma cells” value [12, 15] of the same sequence?
Answer: decreases viability

Question: And the IC50 [13]?
Answer: 14.5 µM

Question: And the “effect on viability of U-2 OS osteosarcoma cancer cells” value [13, 15]?
Answer: decreases viability

Question: What about the IC50 [14] of the same sequence?
Answer: 7.4 µM

Question: And the “effect on viability of Hs 766T pancreatic cancer cells” value [14, 15]?
Answer: decreases viability

Question: And the IC50 (HepG2 liver cancer cells; 96 h)?
Answer: 3.7 µM

Question: What about the “effect on viability of HepG2 liver cancer cells” value (HepG2 liver cancer cells; transfected 1.25-5 μM for 3.5 hrs, two doubling times, CCK-8) of the same sequence?
Answer: decreases viability
